From DBAASP
In brackets after ≈: the same amount, converted by molar mass. Several values for one entry are separate records, joined by “and”; a condition that tells them apart may be missing. Identical values can stand only once. Blank lines part the entries; values can stand above or below the molecule they belong to.

Legend:
Assay in all cases: ≥ marks a high value that may be exact or a test limit, other limits are often not marked, values filed in µg/mL are converted to µM
Escherichia coli K-12 = system: Escherichia coli K-12
[1] = system: Pseudomonas aeruginosa PA214
[2] = system: Pseudomonas aeruginosa PA287
[3] = system: Pseudomonas aeruginosa PAO1
[4] = system: Acinetobacter baumannii ATCC 17978D-5
[5] = system: Enterococcus faecium ATCC 700221
[6] = system: Klebsiella aerogenes ATCC 13048
[7] = system: Pseudomonas aeruginosa ATCC 19660
[8] = system: Pseudomonas aeruginosa ATCC 27853
[9] = system: Staphylococcus aureus ATCC 33591
[10] = system: Staphylococcus epidermidis ATCC 51625
[11] = system: Streptococcus pneumoniae ATCC 49619
[12] = system: Acinetobacter calcoaceticus ATCC 23055
[13] = system: Burkholderia cepacia ATCC 25416
Candida albicans CAN105 = system: Candida albicans CAN105
Corynebacterium xerosis = system: Corynebacterium xerosis
[14] = system: Enterobacter cloacae ATCC 13047
[15] = system: Enterococcus faecalis ATCC 29212
Escherichia coli O111:B4 = system: Escherichia coli O111:B4
Escherichia coli UB1005 = system: Escherichia coli UB1005
[16] = system: Listeria monocytogenes NCTC 7973
[17] = system: Pseudomonas aeruginosa H103
[18] = system: Pseudomonas aeruginosa H187
[19] = system: Pseudomonas aeruginosa H374
[20] = system: Pseudomonas aeruginosa H547
[21] = system: Pseudomonas aeruginosa H744
[22] = system: Pseudomonas aeruginosa K799
[23] = system: Pseudomonas aeruginosa Z61
[24] = system: Salmonella enterica subsp. enterica serovar Typhimurium ATCC 14028s
[25] = system: Staphylococcus aureus ATCC 25923
[26] = system: Staphylococcus aureus K147
[27] = system: Staphylococcus aureus SAP 0017
[28] = system: Staphylococcus epidermidis
[29] = system: Staphylococcus haemolyticus
[30] = system: Stenotrophomonas maltophilia ATCC 13637
[31] = system: Streptococcus pyogenes ATCC 19615
[32] = system: Acinetobacter baumannii CCARM 12035
[33] = system: Bacillus subtilis KCTC 3068
[34] = system: Enterococcus faecalis KCTC 2011
[35] = system: Escherichia coli CCARM 1229
[36] = system: Escherichia coli KCTC 1682
[37] = system: Pseudomonas aeruginosa CCARM 2095
[38] = system: Pseudomonas aeruginosa KCTC 1637
[39] = system: Salmonella typhimurium CCARM 8009
[40] = system: Salmonella typhimurium KCTC 1926
[41] = system: Staphylococcus aureus KCTC 1621
[42] = system: Acinetobacter baumannii ATCC 19606
[43] = system: Escherichia coli BW25113 ΔsbmA
Escherichia coli BW25113 = system: Escherichia coli BW25113
Escherichia coli = system: Escherichia coli
[44] = system: Klebsiella pneumoniae ATCC 700603

- MIC (Escherichia coli K-12): 25 µM (≈ 45.9 µg/mL)
- MIC [1]: ≥ 50 µM
- MIC [2]: ≥ 50 µM
- MIC [3]: 50 µM (≈ 91.8 µg/mL)
Compound: C[C@H](NC(=O)[C@H](C)NC(=O)[C@H](CCCCN)NC(=O)[C@H](Cc1ccccc1)NC(=O)[C@H](C)NC(=O)[C@H](CCCCN)NC(=O)[C@H](C)NC(=O)[C@H](Cc1c[nH]c2ccccc12)NC(=O)[C@H](C)NC(=O)[C@H](CCCCN)NC(=O)[C@H](C)NC(=O)[C@H](Cc1ccccc1)NC(=O)[C@H](C)NC(=O)[C@H](C)NC(=O)[C@H](CCCCN)NC(=O)[C@H](CCCCN)NC(=O)[C@@H](N)CCCCN)C(N)=O [KKKAAFAKAWAKAFKAA]

- MIC [4]: 21.3 µM (≈ 64 µg/mL)
- MIC [5]: 21.3 µM (≈ 64 µg/mL)
- MIC [6]: 21.3 µM (≈ 64 µg/mL)
- MIC [7]: 21.3 µM (≈ 64 µg/mL)
- MIC [8]: > 21.3 µM
- MIC [9]: 21.3 µM (≈ 64 µg/mL)
- MIC [10]: 21.3 µM (≈ 64 µg/mL)
- MIC [11]: 21.3 µM (≈ 64 µg/mL)
Compound: CC[C@H](C)[C@H](NC(=O)[C@H](CCCCN)NC(=O)[C@@H]1CCCN1C(=O)[C@@H]1CCCN1C(=O)[C@H](CC(C)C)NC(=O)[C@H](CCCCN)NC(=O)[C@@H]1CCCN1C(=O)[C@@H]1CCCN1C(=O)[C@H](Cc1ccccc1)NC(=O)[C@H](Cc1ccccc1)NC(=O)[C@@H]1CCCN1C(=O)[C@@H]1CCCN1C(=O)[C@@H]1CCCN1C(=O)[C@H](CCCCN)NC(=O)[C@@H]1CCCN1C(=O)[C@H](CCCCN)NC(=O)[C@@H]1CCCN1C(=O)[C@H](CC(C)C)NC(=O)[C@H](Cc1ccc(O)cc1)NC(=O)[C@@H]1CCCN1C(=O)[C@@H]1CCCN1C(=O)[C@H](CCCCN)NC(=O)[C@@H]1CCCN1C(=O)[C@H](CCCCN)NC(=O)[C@H](CCCCN)NC(=O)[C@@H](N)CCCCN)C(=O)O [KKKPKPPYLPKPKPPPFFPPKLPPKI]

- MIC [12]: 1.39 µM (≈ 4 µg/mL)
- MIC [13]: 22.3 µM (≈ 64 µg/mL)
- MIC (Candida albicans CAN105): 11.1 µM (≈ 32 µg/mL)
- MIC (Corynebacterium xerosis): 0.696 µM (≈ 2 µg/mL)
- MIC [14]: 0.696 µM (≈ 2 µg/mL)
- MIC [15]: 22.3 µM (≈ 64 µg/mL)
- MIC (Escherichia coli O111:B4): 0.696 µM (≈ 2 µg/mL)
- MIC (Escherichia coli UB1005): 0.696 µM (≈ 2 µg/mL)
- MIC [16]: 1.39 µM (≈ 4 µg/mL)
- MIC [8]: 5.57 µM (≈ 16 µg/mL)
- MIC [17]: 1.39 µM (≈ 4 µg/mL)
- MIC [18]: 5.57 µM (≈ 16 µg/mL)
- MIC [19]: 0.696 µM (≈ 2 µg/mL)
- MIC [20]: 0.696 µM (≈ 2 µg/mL)
- MIC [21]: 0.696 µM (≈ 2 µg/mL)
- MIC [22]: 2.09 µM (≈ 6 µg/mL)
- MIC [23]: 1.04 µM (≈ 3 µg/mL)
- MIC [24]: 0.696 µM (≈ 2 µg/mL)
- MIC [25]: 2.79 µM (≈ 8 µg/mL)
- MIC [26]: 11.1 µM (≈ 32 µg/mL)
- MIC [27]: 2.79 µM (≈ 8 µg/mL)
- MIC [28]: 5.57 µM (≈ 16 µg/mL)
- MIC [30]: 1.04 µM (≈ 3 µg/mL)
- MIC [31]: 2.79 µM (≈ 8 µg/mL)
Compound: CC[C@H](C)[C@H](NC(=O)[C@H](CC(C)C)NC(=O)[C@H](C)NC(=O)[C@@H]1CCCN1C(=O)[C@H](CC(C)C)NC(=O)CNC(=O)[C@@H](NC(=O)[C@@H](NC(=O)[C@H](CC(C)C)NC(=O)[C@@H](NC(=O)[C@H](CCCCN)NC(=O)[C@H](CCCCN)NC(=O)[C@@H](NC(=O)[C@H](C)NC(=O)[C@@H](NC(=O)[C@@H](NC(=O)[C@H](CC(C)C)NC(=O)[C@H](CCCCN)NC(=O)[C@H](CCCCN)NC(=O)[C@@H](NC(=O)[C@H](Cc1ccccc1)NC(=O)[C@H](CO)NC(=O)[C@H](CCCCN)NC(=O)[C@H](Cc1c[nH]c2ccccc12)NC(=O)[C@@H](N)CCCCN)[C@@H](C)CC)[C@@H](C)O)[C@@H](C)O)C(C)C)C(C)C)[C@@H](C)O)[C@@H](C)O)C(=O)N[C@@H](CO)C(=O)O [KWKSFIKKLTTAVKKVLTTGLPALIS]
- MIC [29]: 2.79 µM and 5.57 µM

- MIC [32]: ≥ 32 µM
- MIC [33]: ≥ 128 µM
- MIC [34]: ≥ 128 µM
- MIC [35]: 4 µM (≈ 9.85 µg/mL)
- MIC [36]: 2 µM (≈ 4.93 µg/mL)
- MIC [37]: 16 µM (≈ 39.4 µg/mL)
- MIC [38]: 8 µM (≈ 19.7 µg/mL)
- MIC [39]: 8 µM (≈ 19.7 µg/mL)
- MIC [40]: 4 µM (≈ 9.85 µg/mL)
- MIC [41]: ≥ 128 µM
Compound: CC[C@H](C)[C@H](NC(=O)CNC(=O)[C@H](CC(=O)O)NC(=O)[C@H](CCCN=C(N)N)NC(=O)[C@@H](NC(=O)[C@H](CC(N)=O)NC(=O)[C@H](CCCN=C(N)N)NC(=O)CNC(=O)[C@@H](NC(=O)[C@H](CCCCN)NC(=O)[C@H](CCC(=O)O)NC(=O)[C@@H](NC(=O)[C@H](CCCCN)NC(=O)[C@H](CCCCN)NC(=O)[C@H](C)NC(=O)[C@@H](NC(=O)[C@H](CCCCN)NC(=O)[C@H](C)NC(=O)[C@@H](N)CCCN=C(N)N)[C@@H](C)CC)[C@@H](C)CC)C(C)C)C(C)C)C(=O)N[C@H](C(=O)N[C@@H](CCCCN)C(=O)N[C@@H](C)C(N)=O)[C@@H](C)CC [RAKIAKKIEKVGRNVRDGIIKA]

- MIC [42]: 8 µM (≈ 18.5 µg/mL)
- MIC [43]: 8 µM (≈ 18.5 µg/mL)
- MIC (Escherichia coli BW25113): 4 µM (≈ 9.24 µg/mL)
- MIC (Escherichia coli): 2.83 µM (≈ 6.54 µg/mL)
- MIC [44]: 24 µM (≈ 55.5 µg/mL)
- MIC [8]: 64 µM (≈ 148 µg/mL)
- MIC [25]: > 64 µM
Compound: CC[C@H](C)[C@H](NC(=O)[C@@H]1CCCN1C(=O)[C@H](Cc1c[nH]c2ccccc12)NC(=O)[C@H](CCCN=C(N)N)NC(=O)[C@H](Cc1ccccc1)NC(=O)[C@@H](N)CCCN=C(N)N)C(=O)N[C@@H](CCCN=C(N)N)C(=O)N[C@@H](CCCN=C(N)N)C(=O)N1CCC[C@H]1C(=O)N1CCC[C@H]1C(=O)N[C@H](C(=O)N[C@@H](CCCN=C(N)N)C(=O)N1CCC[C@H]1C(=O)N1CCC[C@H]1C(=O)N[C@@H](Cc1ccccc1)C(=O)N[C@@H](Cc1ccc(O)cc1)C(=O)N[C@@H](CCCN=C(N)N)C(=O)O)[C@@H](C)CC [RFRWPIRRPPIRPPFYR]
